We go through 5 compounds from US11547681B2, “N-acylethanolamide derivatives and uses thereof” (ELIEM THERAPEUTICS, INC., priority 2016, dated 2023).

Read-outs that look alike come from different tables or passages of the source.

A short description of data set [1]: in vitro. Here is the method: (§1) Reaction mixture, minus cofactors, was prepared as described below. Test article was added into the reaction mixture at a final concentration of 1 μM. […] An aliquot of the reaction mixture (without cofactor cocktail) was equilibrated in a shaking water bath at 37° C. for 3 minutes. The reaction was initiated by the addition of cofactor cocktail, and the mixture was incubated in a shaking water bath at 37° C. Aliquots (100 μL) were withdrawn at 0, 10, 20, 30, and 60 minutes. Test article samples were immediately combined with 300 μL of ice-cold acetonitrile containing 1% formic acid. Control samples were immediately combined with 400 μL of ice-cold 50/50 acetonitrile (ACN)/dH2O containing 0.1% formic acid and internal standard to terminate the reaction. Samples were then mixed and centrifuged to precipitate proteins. Calibration standards were prepared in matched matrix. Samples and standards were assayed by LC-MS/MS using electrospray ionization for both the dosed prodrug and the expected drug (PEA). Analytical conditions are outlined in Appendix 8-1. Test article concentration at each time point was compared to test article concentration at time 0 to determine the percent remaining at each time point. Halflives were calculated using GraphPad software, fitting to a single-phase exponential decay equation.
as §1, with “for 5” for “for 3”, “minutes. Reaction” for “minutes. The reaction”, “and” for “and the”, “both” for “both the”, “Appendix 10-1.” for “Appendix 8-1.”
(§2) Reaction mixture, minus cofactors, was prepared as described below. Test article was added into the reaction mixture at a final concentration of 1 μM. […] An aliquot of the reaction mixture (without cofactor cocktail) was equilibrated in a shaking water bath at 37° C. for 3 minutes. Reaction was initiated by the addition of cofactor cocktail, and the mixture was incubated in a shaking water bath at 37° C. Aliquots (100 μL) were withdrawn at 0, 10, 20, 30, and 60 minutes. Test article samples were immediately combined with 300 μL of ice-cold acetonitrile containing 1% formic acid. Control samples were immediately combined with 400 μL of ice-cold 50/50 acetonitrile (ACN)/dH2O containing 0.1% formic acid and internal standard to terminate the reaction. Samples were then mixed and centrifuged to precipitate proteins. Calibration standards were prepared in matched matrix. Samples and standards were assayed by LC-MS/MS using electrospray ionization for both dosed prodrug and expected drug (PEA). Analytical conditions are outlined in Appendix 13-1. Test article concentration at each time point was compared to test article concentration at time 0 to determine the percent remaining at each time point. Halflives were calculated using GraphPad software, fitting to a single-phase exponential decay equation.

Data set [2] is described as follows: in vitro. Here is the method:
(§3) The reaction mixture, minus cofactors, was prepared as described below. The test article was added into the reaction mixture at a final concentration of 1 μM. […] An aliquot of the reaction mixture (without cofactor cocktail) was equilibrated in a shaking water bath at 37° C. for 3 minutes. The reaction was initiated by the addition of cofactor cocktail, and the mixture was incubated in a shaking water bath at 37° C. Aliquots (100 μL) were withdrawn at 0, 10, 20, 30, and 60 minutes. All samples were immediately combined with 400 uL of icecold 50/50 acetonitrile/H2O containing 0.1% formic acid and internal standard to terminate the reaction. The samples were then mixed and centrifuged to precipitate proteins. Calibration standards were prepared in matched matrix. All samples and standards were assayed by LC-MS/MS using electrospray ionization for both the dosed prodrug I-9 and the expected drug (PEA). Analytical conditions are outlined in Appendix 4-1. The test article concentration at each time point was compared to the test article concentration at time 0 to determine the percent remaining at each time point. Half-lives were calculated using GraphPad software, fitting to single-phase exponential decay equation.
as §1
as §2, with “for 5” for “for 3”, “and” for “and the”, “Appendix 10-1.” for “Appendix 13-1.”
(§4) Reaction mixture, minus cofactors, was prepared as described below.
This is another data set of the same source.

A short description of data set [3]: in vitro. The procedure:
as §1
as §2, with “for 5” for “for 3”, “and” for “and the”, “Appendix 10-1.” for “Appendix 13-1.”
as §2
The source holds these as a separate data set.

The nature of data set [4]: in vitro. The procedure: as §3, §1
as §2, with “for 5” for “for 3”, “and” for “and the”, “Appendix 10-1.” for “Appendix 13-1.”
as §4
This is another data set of the same source.

Data set [5] is described as follows: Summary of half life data (Table A), matrix not stated. Format: in vitro ADME.
The conditions of data set [6]: male, Sprague-Dawley, rat, in vivo, po.
Procedure: PEA was also dosed intravenously at 1 mg/kg. Blood samples were collected up to 8 hours post-dose, and PEA and PEA-prodrug plasma concentrations were determined with a qualified LC-MS/MS method. Pharmacokinetic analysis was conducted by a non-compartmental model using Phoenix WinNonlin v.6.4 software.
The IV dosing solution was prepared fresh on the day of dosing at 0.5 mg/mL in a vehicle comprised of 10% solutol HS15, 10% n-methylpyrrolidone (NMP), 10% polyethylene glycol 400 (PEG400), and 70% water. For PO dosing, torpac capsules were loaded with an appropriate amount of PEA, PEA-prodrug, or normast powder. […] The prodrug dose in group 5 was the maximum amount of powder that would fit into a single capsule.
The pharmacokinetics of PEA and the PEA-prodrug were evaluated in fasted male Sprague-Dawley rats. Rats were housed one per cage. Each rat was fitted with a jugular vein cannula (JVC) for blood collection. Rats intended for IV dosing were fitted with an additional JVC for dosing. Each study group was dosing in triplicate. Rats were fasted for a minimum of twelve hours prior to dosing. Food was returned at four hours post dosing. Animals had free access to water throughout the study.
Blood samples (˜300 μL) were collected from the rats via a JVC and placed into chilled polypropylene tubes containing sodium heparin as an anticoagulant, and 30 μL of 0.5 M citric acid. Samples were maintained chilled throughout processing. Blood samples were centrifuged at 4° C. and 3,000 g for 5 minutes. Plasma (˜150 μL) was then transferred to a chilled, labeled polypropylene tube containing 15 μL of 10% formic acid, placed on dry ice, and stored in a freezer maintained at −60° C. to −80° C.
Pharmacokinetic parameters were determined with Phoenix WinNonlin (v6.4) software using a non-compartmental model. Maximum plasma concentrations (C0) after IV dosing were estimated by extrapolation of the first two time points back to t=0. […] Area under the time concentration curve (AUC) was calculated using the linear trapezoidal rule with calculation to the last quantifiable data point, and with extrapolation to infinity if applicable. […] Mean residence time, MRT, was calculated by dividing the area under the moment curve (AUMC) by the AUC. Clearance (CL) was calculated from dose/AUC. Steady-state volume of distribution (Vss) was calculated from CL*MRT (mean residence time). Bioavailability was determined by dividing the individual PO dose normalized AUClast values by the average IV AUClast value. Any samples below the limit of quantitation were treated as zero for pharmacokinetic data analysis.
Measured concentrations of PEA in plasma samples were corrected by subtracting the concentration of PEA measured in the pre-dose samples. […] Any corrected values that were negative are reported as not determined (ND).
Data set [7] is described as follows: Simulated intestinal fluid stability, SIF containing pancreatin. The class given is in vitro ADME. The following applies: for % Remaining of Initial (n = 1): 1 μM; for Measured Concentration of Drug: test article dosed at 1 μM. Here is the method: (§5) Studies were carried out in simulated intestinal fluid containing pancreatin. Simulated intestinal fluid was prepared by dissolving 6.8 g of monobasic potassium phosphate in 1.0 L of water. Pancreatin was then added to the solution and the pH was adjusted to 6.8. A DMSO stock was first prepared for the test articles. Aliquots of the DMSO solution were dosed into 300 μL of matrix, which had been pre-warmed to 37° C., at a final test article concentration of 1 μM. An individual tube was dosed for each time point. At each time point (0, 15, 30, 60, and 120 minutes), 900 μL of ice-cold acetonitrile containing 1.0% formic acid was added to an individual tube. Starting time for each tube was staggered such that all timepoints would finish at the same time. After the conclusion of the experiment, tubes were mixed and then centrifuged at 3,000 rpm for 10 minutes. Calibration standards were prepared in matched matrix. […] Analytical conditions are outlined in Appendix 11-1.
as §5, with “prepared for test articles.” for “prepared for the test articles.”, “Aliquots of DMSO solution” for “Aliquots of the DMSO solution”, “individual tube. The starting time for” for “individual tube. Starting time for”, “that all time points would finish” for “that all timepoints would finish”, “in Appendix 14-1.” for “in Appendix 11-1.”

Data set [8] has as its system patients with distal ulcerative colitis. The following applies: cited from earlier work.
Data set [9] is described as follows: in vitro. The following applies: s9. The procedure: Reaction mixture, minus cofactors, was prepared as described below. Test article was added into the reaction mixture at a final concentration of 1 μM. […] An aliquot of the reaction mixture (without cofactor cocktail) was equilibrated in a shaking water bath at 37° C. for 3 minutes. The reaction was initiated by the addition of cofactor cocktail (see below), and the mixture was then incubated in a shaking water bath at 37° C. Aliquots (100 μL) were withdrawn 0, 10, 20, 30 and 60 minutes. Test article samples were immediately combined with 300 μL of ice-cold acetonitrile containing 1% formic acid. Control samples were immediately combined with 400 μL of ice-cold 50/50 acetonitrile (ACN)/dH2O containing 0.1% formic acid and internal standard to terminate the reaction. Samples were then mixed and centrifuged to precipitate proteins. Calibration standards were prepared in matched matrix. Samples and standards were assayed by LC-MS/MS using electrospray ionization for both the dosed prodrug and the expected drug (PEA). Analytical conditions are outlined in Appendix 8-1. Test article concentration at each time point was compared to the test article concentration at time 0 to determine the percent remaining at each time point. Half-lives were calculated using GraphPad software, fitting to a single-phase exponential decay equation.
Reaction mixture, minus cofactors, was prepared as described below. Test article was added into the reaction mixture at a final concentration of 1 μM. […] An aliquot of the reaction mixture (without cofactor cocktail) was equilibrated in a shaking water bath at 37° C. for 5 minutes. Reaction was initiated by the addition of cofactor cocktail (see below), and mixture was then incubated in a shaking water bath at 37° C. Aliquots (100 μL) were withdrawn at 0, 10, 20, 30, and 60 minutes. Test article samples were immediately combined with 300 μL of ice-cold acetonitrile containing 1% formic acid. Control samples were immediately combined with 400 μL of ice-cold 50/50 acetonitrile (ACN)/dH2O containing 0.1% formic acid and internal standard to terminate the reaction. Samples were then mixed and centrifuged to precipitate proteins. Calibration standards were prepared in matched matrix. Samples and standards were assayed by LC-MS/MS using electrospray ionization for both dosed prodrug and expected drug (PEA). Analytical conditions are outlined in Appendix 10-1. Test article concentration at each time point was compared to test article concentration at time 0 to determine the percent remaining at each time point. Half-lives were calculated using GraphPad software, fitting to a single-phase exponential decay equation.
The reaction mixture, minus cofactors, was prepared as described below. Test article was added into the reaction mixture at a final concentration of 1 μM. […] An aliquot of the reaction mixture (without cofactor cocktail) was equilibrated in a shaking water bath at 37° C. for 3 minutes. Reaction was initiated by the addition of cofactor cocktail (see below), and the mixture was then incubated in a shaking water bath at 37° C. Aliquots (100 μL) were withdrawn at 0, 10, 20, 30, and 60 minutes. Test article samples were immediately combined with 300 μL of ice-cold acetonitrile containing 1% formic acid. Control samples were immediately combined with 400 μL of ice-cold 50/50 acetonitrile (ACN)/dH2O containing 0.1% formic acid and internal standard to terminate the reaction. Samples were then mixed and centrifuged to precipitate proteins. Calibration standards were prepared in matched matrix. Samples and standards were assayed by LC-MS/MS using electrospray ionization for both dosed prodrug and expected drug (PEA). Analytical conditions are outlined in Appendix 13-1. Test article concentration at each time point was compared to the test article concentration at time 0 to determine the percent remaining at each time point.

For `O=c1ccc2ccc(O)cc2o1` [Compound 7-hydroxycourmarin], the CLin came out at 0.138 ml/min/mg protein in the data set “in vitro [1]”, 0.0522 ml/min/mg protein in “in vitro [2]”, 0.0770 ml/min/mg protein in the data set “in vitro [3]” and 0.0242 ml/min/mg protein in the data set “in vitro [4]”. Further, the CLint in the data set “in vitro [1]” (mouse, s9) is listed as 0.160 ml/min/mg protein; in the data set “in vitro [2]” (human, s9) it was 0.0698 ml/min/mg protein; in “in vitro [3]” (dog, s9), 0.0799 ml/min/mg protein; in “in vitro [4]” (rat, s9), 0.0320 ml/min/mg protein.
One may read the half-life as the time needed for the level to fall by half in the phase considered. A lower half-life goes with rapid decline. Consider `CCCCCCCCCCCCCCCC(=O)NCCOC(=O)CCC(=O)OC[C@@H](COC(=O)CCC)OC(=O)CCC` [Compound I-15], for which, in [5], the half-life was < 1 min. In data set [6], this compound came in with a Bioavailability of 3.42%. Moreover, the “% Remaining of Initial (n = 1)” value in data set [7] (0 min) is 100%; in data set [7] (15 min), <2.2%; in [7] (30 min), <2.2%; in [7] (60 min), <2.2%; in data set [7] (120 min), <2.2%. The “Measured Concentration of Drug” value in [7] (0 min) is 0.18 µM; in data set [7] (15 min) it was 0 µM; in data set [7] (30 min), 0 µM; in data set [7] (60 min) it was 0 µM; in data set [7] (120 min), 0 µM.
As for `CCCC(=O)[O-].[Na+]` [sodium butyrate], in [8] (after butyrate irrigation), the “discharge of blood ceased” value is listed as 9 of 10 and the overall crypt proliferation entry is recorded as “unchanged”. For the same compound, the “upper crypt-labeling index after butyrate irrigation” value in data set [8] (before 0.086±0.019) was 0.032±0.003. In addition, in [8] (before 2.4±0.3), the “histological degree of inflammation after butyrate irrigation” value is 1.5±0.3. For the same compound, the “endoscopic score after butyrate irrigation” value in data set [8] (before 6.5±0.4) was 3.8±0.8. Besides, in [8] (sodium butyrate 100 mmol/L enemas 2 weeks, 10 patients, before 4.7±0.5), the “stool frequency after butyrate irrigation” value is 2.1±0.4 n/day.
By microsomal CLint is commonly meant the rate of metabolic loss divided by the concentration. A high value points to rapid turnover. As for `O=c1ccc2ccc(O)cc2o1` [Compound 7-HC, 7-hydroxycoumarin, reference compound], the microsomal CLint is 943 µL/min/mg in “in vitro [2]” (both, human, s9, Clint, control compound) and 20.1 µL/min/mg in the data set “in vitro [4]” (male, Sprague-Dawley, rat, s9, Clint, control compound). Further, the half-life was 13 min in “in vitro [2]” (both, human, s9, Half-life (min)); 7.3 min in the data set “in vitro [2]” (both, human, s9, Half-life, control compound); 34 min in “in vitro [4]” (male, Sprague-Dawley, rat, s9, Half-life, control compound).
For the compound `O=c1ccc2ccc(O)cc2o1` [Compound 7-hydroxycourmann], the CLint in “in vitro [9]” (dog) stood at 0.512 ml/min/mg protein; in “in vitro [9]” (human), 0.0472 ml/min/mg protein; in the data set “in vitro [9]” (mouse) it was 0.313 ml/min/mg protein; in “in vitro [9]” (rat) it was 0.362 ml/min/mg protein. The Half-life in “in vitro [9]” (dog) is 1.4 min; in the data set “in vitro [9]” (human), 15 min; in the data set “in vitro [9]” (mouse), 2.2 min; in “in vitro [9]” (rat), 1.9 min.
